In patent US9695155B2, “Herbicidal substituted pyrimidinyloxy benzene compounds” (E. I. DU PONT DE NEMOURS AND COMPANY, priority 2013, dated 2017):

How the values were obtained:
pigweed [1] = assay: Test A postemergence; type: in vivo, Amaranthus retroflexus; details: for Plant response rating, Pigweed: 0 to 100 scale, 0 no effect, 100 complete control
Method in brief: (§1)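 Injury scores run from 0, no effect, to 100, complete control, judged by eye against untreated plants roughly 10 days after treatment. Chemicals carried a surfactant in a non-phytotoxic solvent and went onto loam–sand soil preemergence or onto one- to two-leaf seedlings postemergence.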

blackgrass = assay: Test A postemergence; type: in vivo, Alopecurus myosuroides; details: for Plant response rating, Blackgrass: 0 to 100 scale, 0 no effect, 100 complete control
Method in brief: as §1

giant foxtail [2] = assay: Test A postemergence; type: in vivo, Setaria faberii; details: for Plant response rating, Foxtail, Giant: 0 to 100 scale, 0 no effect, 100 complete control
Method in brief: as §1

pigweed [3] = assay: Test A preemergence; type: in vivo, Amaranthus retroflexus; details: for Plant response rating, Pigweed: 0 to 100 scale where 0 is no effect and 100 is complete control
Method in brief: as §1

giant foxtail [4] = assay: Test A preemergence; type: in vivo, Setaria faberii; details: for Plant response rating, Foxtail, Giant: 0 to 100 scale where 0 is no effect and 100 is complete control
Method in brief: as §1

barnyardgrass [5] = assay: Test A preemergence; type: in vivo, Echinochloa crus-galli; details: for Plant response rating, Barnyardgrass: 0 to 100 scale where 0 is no effect and 100 is complete control
Method in brief: as §1

corn = assay: Test A postemergence; type: in vivo, Zea mays; details: for Plant response rating, Corn: 0 to 100 scale, 0 no effect, 100 complete control
Method in brief: as §1

Italian ryegrass [6] = assay: Test A preemergence; type: in vivo, Lolium multiflorum; details: for Plant response rating, Ryegrass, Italian: 0 to 100 scale where 0 is no effect and 100 is complete control
Method in brief: as §1

barnyardgrass [7] = assay: Test B flooded paddy test; type: in vivo, Echinochloa crus-galli; details: Flood, 250 g ai/ha; 0 to 100 scale where 0 is no effect and 100 is complete control
Method in brief: (§2)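 Evaluation is visual, against untreated controls, 13 to 15 days after treatment. Before treatment, plants reached the 2-leaf stage; pots were then flooded 3 cm deep, compound was added to the water, and that level was maintained. Ratings run 0 to 100, with 100 meaning complete control.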

sedge, umbrella = assay: Test B flooded paddy test; type: in vivo, Cyperus difformis; details: Flood, 250 g ai/ha; 0 to 100 scale where 0 is no effect and 100 is complete control
Method in brief: as §2

Italian ryegrass [8] = assay: Test A postemergence; type: in vivo, Lolium multiflorum; details: for Plant response rating, Ryegrass, Italian: 0 to 100 scale, 0 no effect, 100 complete control
Method in brief: as §1

rice = assay: Test B flooded paddy test; type: in vivo, Oryza sativa; details: Flood, 250 g ai/ha; 0 to 100 scale where 0 is no effect and 100 is complete control
Method in brief: as §2

galium = assay: Test A postemergence; type: in vivo, Galium aparine; details: for Plant response rating, Galium: 0 to 100 scale, 0 no effect, 100 complete control
Method in brief: as §1

ragweed [9] = assay: Test A preemergence; type: in vivo, Ambrosia elatior; details: for Plant response rating, Ragweed: 0 to 100 scale where 0 is no effect and 100 is complete control
Method in brief: as §1

kochia [10] = assay: Test A postemergence; type: in vivo, Kochia scoparia; details: for Plant response rating, Kochia: 0 to 100 scale, 0 no effect, 100 complete control
Method in brief: as §1

ragweed [11] = assay: Test A postemergence; type: in vivo, Ambrosia elatior; details: for Plant response rating, Ragweed: 0 to 100 scale, 0 no effect, 100 complete control
Method in brief: as §1

Heteranthera limosa = assay: Test B flooded paddy test; type: in vivo; details: Flood, 250 g ai/ha; 0 to 100 scale where 0 is no effect and 100 is complete control
Method in brief: as §2

kochia [12] = assay: Test A preemergence; type: in vivo, Kochia scoparia; details: for Plant response rating, Kochia: 0 to 100 scale where 0 is no effect and 100 is complete control
Method in brief: as §1

wheat = assay: Test A postemergence; type: in vivo, Triticum aestivum; details: for Plant response rating, Wheat: 0 to 100 scale, 0 no effect, 100 complete control
Method in brief: as §1

barnyardgrass [13] = assay: Test A postemergence; type: in vivo, Echinochloa crus-galli; details: for Plant response rating, Barnyardgrass: 0 to 100 scale, 0 no effect, 100 complete control
Method in brief: as §1

[14] = 125 g ai/ha, 0 to 100 scale where 0 is no effect and 100 is complete control
[15] = 31 g ai/ha, visual, approximately 10 days

Compound	Plant response rating, Pigweed (pigweed [1]; 31 g ai/ha)	Plant response rating, Blackgrass (blackgrass; 31 g ai/ha)	Plant response rating, Foxtail, Giant (giant foxtail [2]; 31 g ai/ha)	Plant response rating, Pigweed (pigweed [3]; [15])	Plant response rating, Foxtail, Giant (giant foxtail [4]; [15])	Plant response rating, Barnyardgrass (barnyardgrass [5]; [15])	Plant response rating, Corn (corn; 31 g ai/ha)	Plant response rating, Ryegrass, Italian (Italian ryegrass [6]; [15])	Plant response rating, Barnyardgrass (barnyardgrass [7])	Plant response rating, Sedge, Umbrella (sedge, umbrella)	Plant response rating, Ryegrass, Italian (Italian ryegrass [8]; 31 g ai/ha)	Plant response rating, Rice (rice)	Plant response rating, Galium (galium; 31 g ai/ha)	Plant response rating, Ragweed (ragweed [9]; [15])	Plant response rating, Kochia (kochia [10]; 31 g ai/ha)	Plant response rating, Ragweed (ragweed [11]; 31 g ai/ha)	Plant response rating, Ducksalad (Heteranthera limosa)	Plant response rating, Kochia (kochia [12]; [15])	Plant response rating, Wheat (wheat; 31 g ai/ha)	Plant response rating, Barnyardgrass (barnyardgrass [13]; 31 g ai/ha)	further results
N#Cc1cnn(-c2c(Cl)cccc2Oc2ncc(Cl)cn2)c1 [Compound 144]	80	20	20	90	70	20	20	20	0	80	0	0	80	0	50	20	95	70	20	20	Pigweed plant response rating (pigweed [1]; [14]): 100; Blackgrass plant response rating (blackgrass; [14]): 90; Foxtail, Giant plant response rating (giant foxtail [2]; [14]): 100; Plant response rating, Pigweed (pigweed [3]; 125 g ai/ha): 100; Plant response rating, Foxtail, Giant (giant foxtail [4]; 125 g ai/ha): 100; Plant response rating, Barnyardgrass (barnyardgrass [5]; 125 g ai/ha): 90; Corn plant response rating (corn; [14]): 40; Plant response rating, Ryegrass, Italian (Italian ryegrass [6]; 125 g ai/ha): 20; Ryegrass, Italian plant response rating (Italian ryegrass [8]; [14]): 50; Galium plant response rating (galium; [14]): 90; Plant response rating, Ragweed (ragweed [9]; 125 g ai/ha): 100; Kochia plant response rating (kochia [10]; [14]): 100; Ragweed plant response rating (ragweed [11]; [14]): 80; Plant response rating, Kochia (kochia [12]; 125 g ai/ha): 100; Wheat plant response rating (wheat; [14]): 20; Barnyardgrass plant response rating (barnyardgrass [13]; [14]): 90
FCc1cccc(Oc2ncc(Br)cn2)c1-n1cc(I)cn1 [Compound 244]	20	0	0	0	0	0	0	0	0	0	0	0	70	0	20	0	40	0	0	0	Plant response rating, Pigweed (pigweed [1]; 125 g ai/ha): 100; Plant response rating, Blackgrass (blackgrass; 125 g ai/ha): 30; Plant response rating, Foxtail, Giant (giant foxtail [2]; 125 g ai/ha): 10; Pigweed plant response rating (0 to 100 scale) (pigweed [3]; 125 g ai/ha): 100; Foxtail, Giant plant response rating (0 to 100 scale) (giant foxtail [4]; 125 g ai/ha): 80; Barnyardgrass plant response rating (0 to 100 scale, 0 is no effect, 100 is complete control) (barnyardgrass [5]; 125 g ai/ha): 20; Plant response rating, Corn (corn; 125 g ai/ha): 20; Ryegrass, Italian plant response rating (0 to 100 scale) (Italian ryegrass [6]; 125 g ai/ha): 0; Plant response rating, Ryegrass, Italian (Italian ryegrass [8]; 125 g ai/ha): 0; Plant response rating, Galium (galium; 125 g ai/ha): 100; Ragweed plant response rating (0 to 100 scale) (ragweed [9]; 125 g ai/ha): 0; Plant response rating, Kochia (kochia [10]; 125 g ai/ha): 80; Plant response rating, Ragweed (ragweed [11]; 125 g ai/ha): 0; Kochia plant response rating (0 to 100 scale) (kochia [12]; 125 g ai/ha): 40; Plant response rating, Wheat (wheat; 125 g ai/ha): 20; Plant response rating, Barnyardgrass (barnyardgrass [13]; 125 g ai/ha): 10
